Consider one molecule from PMC9867837 (Cancer letters, 2022).

Series [1] concerns the target T1, pYStat3C426A (Homo sapiens, UniProt P40763, C426A).
T1 construct: made in house; host or cells: E. coli BL21(DE3) TKB1 (inducible tyrosine kinase)
The experiment in a line: EMSA with purified mutant pYStat3C426A. The class given is biochemical. An excerpt: This construct was used to generate the mutants, Stat3C328A, Stat3C426A, Stat3C468A, and Stat3C542S, as described in detail in Supplementary Information “Methods”.
The expression of un-phosphorylated and tyrosine phosphorylated His-tagged recombinant wtStat3 and mutant Stat3 proteins in BL21 (DE3) bacterial cells is described in detail in Supplementary Information “Methods”.
Given the MS data, we conducted site-directed mutagenesis analysis for the effects of Cys mutations (Cys-to-Ala or Cys-to-Ser mutations) on the inhibitory activities or potencies of the compounds. […] Purified, phosphorylated wild-type (wt)Stat3, and phosphorylated mutants, Stat3C328A, Stat3C426A, Stat3C468A, and Stat3C542S protein samples of equal amounts were pre-incubated with or without 3 μM H182 for 30 min at room temperature prior to incubation with the radiolabeled hSIE probe that binds Stat3 and subjecting to EMSA analysis. […] Focusing on the C426 and C468, we next conducted dose-response studies for effects of H182 on Stat3C426A and Stat3C468A. […] Equal proteins used in the DNA-binding assay/EMSA analysis are shown by SDS-PAGE Coomassie staining (Fig. 3B, lower). […]
In another case, the nuclear extract was pre-incubated with the radiolabeled probe for 30 min at 30 °C prior to incubation with increasing concentration of H182 at room temperature for 30 min and subjecting to EMSA analysis. Bands corresponding to Stats DNA- binding activities were scanned and quantified using ImageJ and plotted as a percentage of control (vehicle) against the concentration of the inhibitor, from which the IC50 values were derived . […]
These studies were performed as previously reported using the v-Src -transformed NIH3T3/v-Src fibroblasts [1 -5] . […] Luciferase activity was normalized to total protein concentration of cell lysate, which was determined by Bradford assay (Bio-Rad, Hercules, CA) . […]

In series [2] the test system is MDA-MB-231 cells. The experiment in a line: Clonogenic survival assay. The class given is cell-based, human. The note with it: 0.3–2 μM H182, treated once. As for the experimental part: These studies were performed as previously reported. Details are presented in Supplementary Information, “Methods”.
These studies were performed as previously reported . For the clonogenic survival assay, briefly, cells were seeded as single-cell (500 cells per well) in 6 -well plates, then untreated (DMSO control) or treated once the following day with H182 and allowed to grow until large colonies were visible, which were stained with crystal violet for 4 h and imaged with a FluorChem imaging system (Protein Simple, Santa Clara, CA).
For the soft-agar assay, briefly, each well contained a bottom layer of 1 ml of 1% agarose in complete DMEM and a top layer of 1 ml of 0.5% agarose in complete DMEM containing 500 cells. After the upper agar layer containing cells solidified, 1 ml culture medium containing H182 (0-2 µM) or DMSO (control) was overlaid, and the cultures were maintained at 37 °C in the incubator, with the medium replacement every 3-4 days with fresh medium that contains the inhibitor or not. Cells were allowed to culture for 3-4 weeks until large colonies were visible under microscope. The colonies were stained with crystal violet and […]
1.2.8. Confocal microscopy studies
4 cells in 1 ml) in logarithmic
These studies were performed as previously reported. […]

Series [3] can be described thus: Human liver microsome stability. The class given is in vitro ADME. The note with it: liver microsomes, read-out: Metabolic Stability HLM t1/2. Here is the method: Solubility, human (HLM) and mouse liver microsomal (MLM), and plasma stability studies were performed by Eurofins Cerep Panlabs and Eurofin Discovery Services (www.eurofins.com/PharmaDiscovery), while protein binding studies were performed by Sanford Burnham Prebys Chemical Biology & Drug Discovery Core using standard protocols.
On the technique in general: Liver microsomes are a subcellular fraction often used to study metabolism.

As a reminder, the IC50 is the point on the concentration scale where inhibition reaches its midpoint. A higher IC50 goes with lower potency.

T1 sequence (P40763 127-711 C426A): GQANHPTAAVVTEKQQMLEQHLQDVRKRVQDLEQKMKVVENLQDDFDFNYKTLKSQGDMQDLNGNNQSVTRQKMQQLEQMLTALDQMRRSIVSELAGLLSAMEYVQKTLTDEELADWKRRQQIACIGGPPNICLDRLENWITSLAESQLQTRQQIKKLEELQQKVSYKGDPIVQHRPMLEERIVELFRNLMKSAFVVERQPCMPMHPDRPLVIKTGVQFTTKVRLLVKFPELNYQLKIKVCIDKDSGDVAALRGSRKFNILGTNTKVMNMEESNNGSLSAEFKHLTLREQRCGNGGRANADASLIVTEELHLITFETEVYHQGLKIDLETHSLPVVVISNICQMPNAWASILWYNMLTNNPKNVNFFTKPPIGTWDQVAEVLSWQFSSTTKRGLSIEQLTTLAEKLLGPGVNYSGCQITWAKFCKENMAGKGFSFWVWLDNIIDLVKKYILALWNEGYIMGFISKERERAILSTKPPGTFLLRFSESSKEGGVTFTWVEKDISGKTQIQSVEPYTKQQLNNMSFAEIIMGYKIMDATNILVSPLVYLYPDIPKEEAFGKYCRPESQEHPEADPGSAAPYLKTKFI

On to `O=C([C@H]1CCN1S(=O)(=O)c1c(F)c(F)c(F)c(F)c1F)N(Cc1ccc(C2CCCCC2)cn1)c1ccc2c(=O)[nH]ncc2c1` [Compound H182], for which the “Effect on DNA-binding activity of pYStat3C426A” value in series [1] (3 μM H182, 30 min) is “unaffected”. In series [1] (10 μM H182), the “Effect on pYStat3C426A activity” value was “near complete inhibition”. This molecule also gave an IC50 in series [1] (EMSA, 0–50 μM H182, 30 min) of 6 µM. Further, in series [2], the “Effect on anchorage-dependent colony formation” value is “potently and dose-dependently inhibited”. Besides, the half-life in series [3] was 21 min.
